Source: the supplement of paper PMC11061612

Columns and labels:
Dasatinib = compound: CC1=C(C(=CC=C1)Cl)NC(=O)C2=CN=C(S2)NC3=CC(=NC(=N3)C)N4CCN(CC4)CCO [Dasatinib]; conditions: max 2 µM
Summary of the method: (§1)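 Viability was measured with CellTiter-Glo 2.0 luminescence after 72 hours of dosing at a final DMSO of typically 0.2%, and scaled between blank-well and DMSO-well means. Beforehand, cancer cell lines sat 24 hours at 37°C and 5% CO2 in 1536-well plates in 7.5 μl DMEM/F12 or RPMI with 10% FBS. A non-linear mixed effects model fitted two-parameter logistic curves to the dose responses. The single-agent IC50 comes from these fits.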

Palbociclib = compound: CC(=O)c1c(C)c2cnc(Nc3ccc(N4CCNCC4)cn3)nc2n(C2CCCC2)c1=O [Palbociclib]; conditions: max 10 µM
Summary of the method: as §1

AZD7648 = compound: Cc1cc2ncnn2cc1Nc1ncc2c(n1)n(C1CCOCC1)c(=O)n2C [AZD7648]; conditions: max 10 µM
Summary of the method: as §1

AZD5991 = compound: Cc1c2c(nn1C)CSCc1cc(n(C)n1)CSc1cc(c3ccccc3c1)OCCCc1c(C(=O)O)n(C)c3c-2c(Cl)ccc13 [AZD5991]; conditions: max 1 µM
Summary of the method: as §1

Etoposide = compound: COc1cc([C@@H]2c3cc4c(cc3[C@@H](O[C@@H]3O[C@@H]5CO[C@@H](C)O[C@H]5[C@H](O)[C@H]3O)[C@H]3COC(=O)[C@H]23)OCO4)cc(OC)c1O [Etoposide]; conditions: max 10 µM
Summary of the method: as §1

Crizotinib = compound: C[C@@H](Oc1cc(-c2cnn(C3CCNCC3)c2)cnc1N)c1c(Cl)ccc(F)c1Cl [Crizotinib]; conditions: max 10 µM
Summary of the method: as §1

Gemcitabine = compound: Nc1ccn([C@@H]2O[C@H](CO)[C@@H](O)C2(F)F)c(=O)n1 [Gemcitabine]; conditions: max 0.3 µM
Summary of the method: as §1

AZD5363 = compound: C1CN(CCC1(C(=O)N[C@@H](CCO)C2=CC=C(C=C2)Cl)N)C3=NC=NC4=C3C=CN4 [AZD5363]; conditions: max 10 µM
Summary of the method: as §1

Selumetinib = compound: Cn1cnc2c(F)c(Nc3ccc(Br)cc3Cl)c(C(=O)NOCCO)cc21 [Selumetinib]; conditions: max 10 µM
Summary of the method: as §1

AZD8186 = compound: C[C@@H](Nc1cc(F)cc(F)c1)c1cc(C(=O)N(C)C)cc2c(=O)cc(N3CCOCC3)oc12 [AZD8186]; conditions: max 10 µM
Summary of the method: as §1

Doxorubicin = compound: COc1cccc2c1C(=O)c1c(O)c3c(c(O)c1C2=O)C[C@@](O)(C(=O)CO)C[C@@H]3O[C@H]1C[C@H](N)[C@H](O)[C@H](C)O1 [Doxorubicin]; conditions: max 1 µM
Summary of the method: as §1

SRA737 = compound: N#Cc1cnc(Nc2cc(NC[C@H]3CNCCO3)c(C(F)(F)F)cn2)cn1 [SRA737]; conditions: max 10 µM
Summary of the method: as §1

AZD1390 = compound: CC(C)n1c(=O)n(C)c2cnc3cc(F)c(-c4ccc(OCCCN5CCCCC5)nc4)cc3c21 [AZD1390]; conditions: max 0.3 µM
Summary of the method: as §1

Olaparib = compound: O=C(c1cc(Cc2n[nH]c(=O)c3ccccc23)ccc1F)N1CCN(C(=O)C2CC2)CC1 [Olaparib]; conditions: max 10 µM
Summary of the method: as §1

Prexasertib = compound: COc1cccc(OCCCN)c1-c1cc(Nc2cnc(C#N)cn2)n[nH]1 [Prexasertib]; conditions: max 1 µM
Summary of the method: as §1

SG3199 = compound: CC1=CN2[C@@H](C1)C=NC3=CC(=C(C=C3C2=O)OC)OCCCCCOC4=C(C=C5C(=C4)N=C[C@@H]6CC(=CN6C5=O)C)OC [SG3199]; conditions: max 0.001 µM
Summary of the method: as §1

AZD1775 = compound: C=CCn1c(=O)c2cnc(Nc3ccc(N4CCN(C)CC4)cc3)nc2n1-c1cccc(C(C)(C)O)n1 [AZD1775]; conditions: max 3 µM
Summary of the method: as §1

Taselisib = compound: Cc1nc(-c2cn3c(n2)-c2ccc(-c4cnn(C(C)(C)C(N)=O)c4)cc2OCC3)n(C(C)C)n1 [Taselisib]; conditions: max 10 µM
Summary of the method: as §1

Savolitinib = compound: C[C@@H](c1ccc2nccn2c1)n1nnc2ncc(-c3cnn(C)c3)nc21 [Savolitinib]; conditions: max 1 µM
Summary of the method: as §1

AZD2811 = compound: CCN(CCO)CCCOc1ccc2c(Nc3cc(CC(=O)Nc4cccc(F)c4)[nH]n3)ncnc2c1 [AZD2811]; conditions: max 1 µM
Summary of the method: as §1

AZD6738 = compound: C[C@@H]1COCCN1C2=NC(=NC(=C2)C3(CC3)[S@](=N)(=O)C)C4=C5C=CNC5=NC=C4 [AZD6738]; conditions: max 10 µM
Summary of the method: as §1

AZD4320 = compound: CN(CC[C@H](CSC1=CC=CC=C1)NC2=C(C=C(C=C2)S(=O)(=O)NC(=O)C3=CC=C(C=C3)N4CCC(CC4)[C@H](C5=CC=CC=C5C6=CC=C(C=C6)Cl)O)S(=O)(=O)C(F)(F)F)CCO [AZD4320]; conditions: max 1 µM
Summary of the method: as §1

AZD5153 = compound: COc1nnc2ccc(N3CCC(c4ccc(OCCN5CCN(C)C(=O)[C@H]5C)cc4)CC3)nn12 [AZD5153]; conditions: max 1 µM
Summary of the method: as §1

Alisertib = compound: COc1cc(Nc2ncc3c(n2)-c2ccc(Cl)cc2C(c2c(F)cccc2OC)=NC3)ccc1C(=O)O [Alisertib]; conditions: max 10 µM
Summary of the method: as §1

Paclitaxel = compound: CC(=O)O[C@H]1C(=O)[C@@]2(C)[C@H]([C@H](OC(=O)c3ccccc3)[C@]3(O)C[C@H](OC(=O)[C@H](O)[C@@H](NC(=O)c4ccccc4)c4ccccc4)C(C)=C1C3(C)C)[C@]1(OC(C)=O)CO[C@@H]1C[C@@H]2O [Paclitaxel]; conditions: max 3 µM
Summary of the method: as §1

Venetoclax = compound: CC1(C)CCC(CN2CCN(c3ccc(C(=O)NS(=O)(=O)c4ccc(NCC5CCOCC5)c([N+](=O)[O-])c4)c(Oc4cnc5[nH]ccc5c4)c3)CC2)=C(c2ccc(Cl)cc2)C1 [Venetoclax]; conditions: max 1 µM
Summary of the method: as §1

Lapatinib = compound: CS(=O)(=O)CCNCc1ccc(-c2ccc3ncnc(Nc4ccc(OCc5cccc(F)c5)c(Cl)c4)c3c2)o1 [Lapatinib]; conditions: max 10 µM
Summary of the method: as §1

SN-38 = compound: CCc1c2c(nc3ccc(O)cc13)-c1cc3c(c(=O)n1C2)COC(=O)[C@]3(O)CC [SN-38]; conditions: max 0.3 µM
Summary of the method: as §1

MK-2206 = compound: NC1(c2ccc(-c3nc4ccn5c(=O)[nH]nc5c4cc3-c3ccccc3)cc2)CCC1 [MK-2206]; conditions: max 10 µM
Summary of the method: as §1

5-Fluorouracil = compound: O=c1[nH]cc(F)c(=O)[nH]1 [5-Fluorouracil]; conditions: max 20 µM
Summary of the method: as §1

Trametinib = compound: CC(=O)Nc1cccc(-n2c(=O)n(C3CC3)c(=O)c3c(Nc4ccc(I)cc4F)n(C)c(=O)c(C)c32)c1 [Trametinib]; conditions: max 1 µM
Summary of the method: as §1

Gefitinib = compound: COc1cc2ncnc(Nc3ccc(F)c(Cl)c3)c2cc1OCCCN1CCOCC1 [Gefitinib]; conditions: max 10 µM
Summary of the method: as §1

Carboplatin = compound: C1CC(C1)(C(=O)[O-])C(=O)[O-].N.N.[Pt+2] [Carboplatin]; conditions: max 10 µM
Summary of the method: as §1

AZD0156 = compound: CN(C)CCCOc1ccc(-c2ccc3ncc4c(c3c2)n(C2CCOCC2)c(=O)n4C)cn1 [AZD0156]; conditions: max 3 µM
Summary of the method: as §1

[1] = compound: O=C(Nc1ccc2[nH]nc(-c3ccncc3)c2c1)[C@@H]1CCN(CC(=O)N2CCN(c3ccc(-c4ncccn4)cc3)CC2)C1; conditions: max 5 µM
Summary of the method: as §1

NCI-H3118 (Head and Neck Carcinoma)
IC50, cell viability 72 h (Dasatinib): 0.309 µM | IC50, cell viability 72 h (Palbociclib): > 10 µM | IC50, cell viability 72 h (AZD7648): > 10 µM | IC50, cell viability 72 h (AZD5991): > 1 µM | IC50, cell viability 72 h (Etoposide): 5.67 µM | IC50, cell viability 72 h (Crizotinib): > 10 µM | IC50, cell viability 72 h (Gemcitabine): 0.0641 µM | IC50, cell viability 72 h (AZD5363): > 10 µM | IC50, cell viability 72 h (Selumetinib): 3.09 µM | IC50, cell viability 72 h (AZD8186): > 10 µM | IC50, cell viability 72 h (Doxorubicin): > 1 µM | IC50, cell viability 72 h (SRA737): > 10 µM | IC50, cell viability 72 h (AZD1390): > 0.3 µM | IC50, cell viability 72 h (Olaparib): > 10 µM | IC50, cell viability 72 h (Prexasertib): 0.0393 µM | IC50, cell viability 72 h (SG3199): > 0.001 µM | IC50, cell viability 72 h (AZD1775): 0.191 µM | IC50, cell viability 72 h (Taselisib): 1.06 µM | IC50, cell viability 72 h (Savolitinib): > 1 µM | IC50, cell viability 72 h (AZD2811): > 1 µM | IC50, cell viability 72 h (AZD6738): > 10 µM | IC50, cell viability 72 h (AZD4320): > 1 µM | IC50, cell viability 72 h (AZD5153): 0.684 µM | IC50, cell viability 72 h (Alisertib): > 10 µM | IC50, cell viability 72 h (Paclitaxel): 0.015 µM | IC50, cell viability 72 h (Venetoclax): > 1 µM | IC50, cell viability 72 h (Lapatinib): 4.49 µM | IC50, cell viability 72 h (SN-38): 0.277 µM | IC50, cell viability 72 h (MK-2206): > 10 µM | IC50, cell viability 72 h (5-Fluorouracil): > 20 µM | IC50, cell viability 72 h (Trametinib): 0.12 µM | IC50, cell viability 72 h (Gefitinib): 1.97 µM | IC50, cell viability 72 h (Carboplatin): > 10 µM | IC50, cell viability 72 h (AZD0156): > 3 µM | IC50, cell viability 72 h [1]: 0.912 µM
